Legend:
[1] = test system: T. vaginalis (ATCC No. 30001); assay: Trapping of Tc99m pertechnetate in Trichomonas vaginalis (intracellular radioactivity, gamma counter); type: cell-based; conditions: 2 μCi, 37° C., 2×10^6 cells per tube, washed pellet
Protocol: T. vaginalis (ATCC No. 30001) was cultured in ATCC LYI entamoeba medium (ATCC No. PRA-2154) at 37° C. in test tubes to a titer of 2×10^6 cells per tube. Three test tubes were included in each group. T. vaginalis cells were incubated at 37° C. for a period of time after inoculation of 2 μci of Technetium 99m pertechnetate in each test tube. At end of incubation, the cells were harvested by centrifugation at […], for 10 minutes. The cellular pellet was washed three times with PBS to remove extra-cellular radioactivity. Intracellular radioactivity of the cells was counted with a gamma counter.

[2] = test system: E. coli BL21(DE3) Star transformed with pET-Duet + pACYCDuet (control); assay: Tc99m O4- reduction assay, control bacteria with Duet vectors only; type: cell-based, Escherichia coli; conditions: 15 mCi, aerobic
Protocol: (§1) E. coli BL21(DE3) Star (Invitrogen) was transformed with various constructs and grown on the appropriate selective media agars. In case of periplasmic fusion hydrogenases, dual co-transformation was accomplished using antibiotic selection markers, ampicillin and chloramphenicol. Transformed cells were grown at 37° C. in a standard laboratory shaker under aerobic conditions to an optical density at 600 nm (O.D.600) of 0.6 and then induced with 1 mM IPTG under a standard T7 promoter induction protocol. One ml aliquots of cells were collected at 0, 1, 2, and 3 hour time points following induction and mRNA was extracted using a bacterial mRNA extraction mini kit (Qiagen). 100 ng of the mRNA samples was DNAse treated (Invitrogen) according to the manufacturer's protocol. RNA quality was then analyzed using an Agilent 2100 Bioanalyzer, prokaryotic total RNA nano-chip. RT-PCR reactions were performed using the internal specific primers for HydA, Forward: 5′-[…] (SEQ ID NO:8); Reverse: 5′-[…] (SEQ ID NO:9) and Hyd B, Forward: 5′-[…] (SEQ ID NO:10), Reverse 5′-[…] (SEQ ID NO:11) and one step RT-PCR kit (Qiagen).
(§2) Tc99m O4—reduction assays were performed as follows: Bacterial cultures were grown to an O.D.600 of 0.6 in a simple rotary shaker under aerobic conditions. HydA and HydB genes were induced with 1 mM IPTG in the presence of 15 mCi of 99mTc Pertechnetate and ten ml aliquots of bacterial cultures were collected at 0, 1, 2, and 3 hr time points. The cells were spun down at 3500 rpm for 15 min, washed twice with 5 ml phosphate buffered saline (PBS) and the supernatant was collected and saved for later analysis. Control bacteria transformed with Duet vectors only were treated as controls. Total counts in the total cell pellet, 100 μl of media supernatant, and 1 ml of each wash, were then assayed using a gamma counter. Ten microliters of 99mTc pertechnetate was assayed to provide internal control between experiments.
(§3) In FIG. 12, the amount of radioactivity recorded in counts per minute was divided by the total number of counts expected per 10 ml of culture. The experimental values were determined by subtracting the control bacterial normalized CPM from the normalized CPM from the hydrogenase vector(s) transformed bacteria. The values obtained were therefore normalized counts per minute for the different cell lines.

[3] = test system: D. desulfuricans hydrogenase HydA/HydB (pETDuet/HydA/HydB) in E. coli BL21(DE3) Star; assay: Tc99m O4- reduction assay, bacteria with pETDuet/HydA/HydB; type: cell-based, Desulfovibrio desulfuricans; conditions: for Counts Per Minute, cell pellet, HYDA/B: 15 mCi, aerobic
Excerpt: (§4) Bacterial expression vectors were designed following standard molecular biology techniques. D. desulfuricans hydrogenase genes, Hyd A and Hyd B were PCR amplified using primers incorporated with unique restriction sites at the ends. The genes were inserted into pET-Duet1 (Novagen) vector under T7 RNA polymerase driven promoter through sequential restriction digestion and ligation. Periplasmic signal sequences were extracted from vectors pET-39b and pET-40b (Novagen) and ligated in-frame with start codon deficient Hydrogenase genes. Mammalian expression vectors were designed with mitochondrial signal sequences from pCMV/myc/mito, fused in frame by PCR amplification and ligation with both HydA and HydB genes. Additionally, the myc epitope was added in-frame at the C-terminus to facilitate subcellular localization and immunoprecipations.
as §1, §2, §3

[4] = test system: DsbA-HydA + DsbC-HydB (pACYC-DsbA-HydA + pETDuet/DsbC-HydB) in E. coli BL21(DE3) Star; assay: Tc99m O4- reduction assay, bacteria with both periplasmic Dsb fusion vectors; type: cell-based, Desulfovibrio desulfuricans; conditions: for Counts Per Minute, cell pellet, DSB FUSIONS: 15 mCi, aerobic
Excerpt: as §4, §1, §2, §3
(§5) However, this increase was negligible when compared to cells containing both HydA and HydB in separate (individual) Dsb fusion vector constructs.

[5] = test system: DsbA-HydA fusion (pACYC-DsbA-HydA alone) in E. coli BL21(DE3) Star; assay: Tc99m O4- reduction assay, bacteria with pACYC-DsbA-HydA alone; type: cell-based, Desulfovibrio desulfuricans; conditions: 15 mCi, aerobic
Excerpt: as §4, §1
Tc99m O4—reduction assays were performed as follows: Bacterial cultures were grown to an O.D.600 of 0.6 in a simple rotary shaker under aerobic conditions. HydA and HydB genes were induced with 1 mM IPTG in the presence of 15 mCi of 99mTc Pertechnetate and ten ml aliquots of bacterial cultures were collected at 0, 1, 2, and 3 hr time points. The cells were spun down at 3500 rpm for 15 min, washed twice with 5 ml phosphate buffered saline (PBS) and the supernatant was collected and saved for later analysis. […]
as §3, with “The values obtained were therefore normalized counts per minute for the different cell lines.” left out

[6] = test system: DsbC-HydB fusion (pETDuet/DsbC-HydB alone) in E. coli BL21(DE3) Star; assay: Tc99m O4- reduction assay, bacteria with pETDuet/DsbC-HydB alone; type: cell-based, Desulfovibrio desulfuricans; conditions: for Counts Per Minute, cell pellet, FB: 15 mCi, aerobic
Excerpt: as §4, §1, §2, §3, §5

[O]=[99Tc](=[O])(=[O])[O-] [Technetium 99m pertechnetate]
RADIOACTIVITY (dpm) in T. vaginalis ([1]; incubation 30 minutes): 24904 dpm
RADIOACTIVITY (dpm) in T. vaginalis ([1]; incubation 45 minutes): 45127 dpm
RADIOACTIVITY (dpm) in T. vaginalis ([1]; incubation 12 hours): 1915843 dpm
Counts Per Minute, cell pellet, D + P (control) ([2]; 0 hr after 1 mM IPTG induction): 2777 cpm
Counts Per Minute, cell pellet, D + P (control) ([2]; 1 hr after 1 mM IPTG induction): 6939 cpm
Counts Per Minute, cell pellet, D + P (control) ([2]; 2 hr after 1 mM IPTG induction): 10045 cpm
Counts Per Minute, cell pellet, D + P (control) ([2]; 3 hr after 1 mM IPTG induction): 11944 cpm
Counts Per Minute, cell pellet, HYDA/B ([3]; 0 hr after 1 mM IPTG induction): 2074 cpm
Counts Per Minute, cell pellet, HYDA/B ([3]; 1 hr after 1 mM IPTG induction): 5543 cpm
Counts Per Minute, cell pellet, HYDA/B ([3]; 2 hr after 1 mM IPTG induction): 8031 cpm
Counts Per Minute, cell pellet, HYDA/B ([3]; 3 hr after 1 mM IPTG induction): 12339 cpm
trapping in vitro as compared to control cells ([3]; bacteria overexpressing HydA and HydB genes): significantly higher trapping
radioactivity within cells relative to control cells ([3]; pETDuet1/HydA/HydB vector vs pET-Duet+PAcYCDuet vector): noticeable increase in radioactivity
Counts Per Minute, cell pellet, DSB FUSIONS ([4]; 0 hr after 1 mM IPTG induction): 4185 cpm
Counts Per Minute, cell pellet, DSB FUSIONS ([4]; 1 hr after 1 mM IPTG induction): 38129 cpm
Counts Per Minute, cell pellet, DSB FUSIONS ([4]; 2 hr after 1 mM IPTG induction): 80021 cpm
Counts Per Minute, cell pellet, DSB FUSIONS ([4]; 3 hr after 1 mM IPTG induction): 56611 cpm
99mTc association with the bacteria ([4]; DsbA and DsbC ligated in fusion to Hyd A and Hyd B): increased 99mTc association with the bacteria
Counts Per Minute, cell pellet, FA ([5]; 0 hr after 1 mM IPTG induction): 7074 cpm
Counts Per Minute, cell pellet, FA ([5]; 1 hr after 1 mM IPTG induction): 8503 cpm
Counts Per Minute, cell pellet, FA ([5]; 2 hr after 1 mM IPTG induction): 15323 cpm
Counts Per Minute, cell pellet, FA ([5]; 3 hr after 1 mM IPTG induction): 23935 cpm
Counts Per Minute, cell pellet, FB ([6]; 0 hr after 1 mM IPTG induction): 4643 cpm
Counts Per Minute, cell pellet, FB ([6]; 1 hr after 1 mM IPTG induction): 40064 cpm
Counts Per Minute, cell pellet, FB ([6]; 2 hr after 1 mM IPTG induction): 55201 cpm
Counts Per Minute, cell pellet, FB ([6]; 3 hr after 1 mM IPTG induction): 77462 cpm
entrapment of radionuclide by cells ([6]; Hyd B-Dsb fusion alone vs both fusion hydrogenase products together): higher than that of both fusion hydrogenase products together

From US20070009437A1, “Intracellular trapping of radionuclides by enzyme-mediated reduction” (priority 2003, published 2007)
